# Literature values in patent publication US4474765A, “Biologically active peptides” (Farmitalia Carlo Erba S.p.A., priority 1982, dated 1984).
# Test system: release of ACTH, β-endorphin, growth hormone, TSH and prolactin
# Conditions: literature, Montecucchi et al. 1979
structure (smiles),measurement,value
CC[C@H](C)[C@H](NC(=O)[C@@H](NC(=O)[C@H](CC(=O)O)NC(=O)[C@H](CC(C)C)NC(=O)[C@H](CC(C)C)NC(=O)[C@H](CC(C)C)NC(=O)[C@H](CCCNC(=N)N)NC(=O)[C@H](CC(N)=O)NC(=O)[C@H](CC(N)=O)NC(=O)[C@H](C)NC(=O)[C@H](C)NC(=O)[C@H](CCC(N)=O)NC(=O)[C@H](CCC(N)=O)NC(=O)[C@H](CCCCN)NC(=O)[C@H](CCC(=O)O)NC(=O)[C@H](CCCCN)NC(=O)[C@H](CCC(=O)O)NC(=O)[C@H](CCC(N)=O)NC(=O)[C@H](CCCCN)NC(=O)[C@H](CCC(=O)O)NC(=O)[C@@H](NC(=O)[C@H](CCC(=O)O)NC(=O)[C@@H](NC(=O)[C@H](CCSC)NC(=O)[C@H](CCCCN)NC(=O)[C@H](CCCNC(=N)N)NC(=O)[C@H](CC(C)C)NC(=O)[C@H](CC(C)C)NC(=O)[C@H](CCC(=O)O)NC(=O)[C@H](CC(C)C)NC(=O)[C@H](CO)NC(=O)[C@H](CC(C)C)NC(=O)[C@H](CC(=O)O)NC(=O)[C@@H](NC(=O)[C@H](CO)NC(=O)[C@@H](NC(=O)[C@@H]1CCCN1C(=O)[C@@H]1CCCN1C(=O)CNC(=O)[C@@H]1CCC(=O)N1)[C@@H](C)CC)[C@@H](C)CC)[C@@H](C)CC)[C@@H](C)CC)[C@@H](C)O)C(N)=O [sauvagine],pharmacological activities (hormone release),"release of ACTH and β-endorphin, and inhibition of the release of growth hormone, TSH and prolactin"
